Measurements published in patent US20120028288A1, “Method for Measuring Cell Motility and System Therefor” (priority 2005, published 2012).
“Also recorded” adds a separate entry of the source.

B1: CCL3: Recombinant Human MIP-1 alpha (CCL3; Macrophage Inflammatory Protein-1 alpha), purchased from PeproTech (protein, UniProt P10147 24-92, looked up)
C-C motif chemokine 3: SLAADTPTACCFSYTSRQIPQNFIADYFETSSQCSKPGVIFLTKRSRQVCADPSEEWVQKYVSDLELSA
B2: CCL5: Recombinant Human RANTES (CCL5; Regulation upon Activation Normal T cell Express Sequence), purchased from PeproTech (protein, UniProt P13501 24-91, looked up)
C-C motif chemokine 5: SPYSSDTTPCCFAYIARPLPRAHIKEYFYTSGKCSNPAVVFVTRKNRQVCANPEKKWVREYINSLEMS

How the values were obtained:
[1] = test system: eosinophils from normal, allergy/atopy and asthma patient donors; assay: Chemotaxis analysis of eosinophils of allergy/atopy and asthma patients compared with normal subjects (TAXIScan; VD plot, CRT and CLT analysis)
[2] = test system: eosinophils obtained from blood samples of normal subjects; assay: Eosinophil chemotactic experiment toward various chemotactic factors (time-lapse tracking; VD plot, CRT and CLT analysis); details: for rate of cells having a high specific motility in the concentration gradient direction in the VD plot / Chemotaxis Lifetime (CLT) / migration duration time, in words / Chemotactic Response Time (CRT) / time course of migration start, in words: normal subject eosinophils; for rate of cells having a high specific motility in the concentration gradient direction in the VD plot: CCL3, CCL5 5 μM, CXCL12, fMLP, PGD2 1 μM, vs control without factor (N.C.); for Chemotaxis Lifetime (CLT) / migration duration time, in words / Chemotactic Response Time (CRT) / time course of migration start, in words: concentration gradient of factor; for Chemotactic Response Time (CRT) / time course of migration start, in words: ACR viewed at 5 and 45 minutes
Experimental: Blood samples were obtained from patients and normal subjects, after a confirmation of informed consent. The blood samples were subjected to hemolytic reaction by water treatment and centrifugal separation, repeated twice, and thereafter a magnetic cell separation method was conducted so as to separate eosinophil therefrom. MACS (Miltenyi Biotec GmbH, Germany) was used for the magnetic cell separation, and the separation was performed by the negative selection method using anti-human CD3, CD14, CD16, and CD19 antibody-labeled paramagnetic microbeads. The magnetic cell separation method was conducted pursuant to the manual of Miltenyi Biotec GmbH. The cells obtained were washed with PBS, and thereafter suspended in RPMI-HEPES culture medium containing 1% FCS at the concentration of 5×10^6 cells/ml, and used for the subsequent experiment.
Structural setting of the system and the measuring method were carried out according to the aforementioned procedure.
In the measurement, the observation support unit of the system was filled up with RPMI-HEPES medium containing 1% FCS, and maintained at 37° C. to have the cells and the chemotactic factor being injected, and thereafter, the state of the cells was subjected to the time-lapse imaging. […] Imaging was performed at time-lapse intervals of one minute, and twelve samples at the maximum per one holder were subjected to the imaging in parallel.
The aforementioned program was used for the identification and tracking of the cell. […] With this software, when a user highlighted an area in the image as an analysis target, the cells in the area were identified and tracking was executed. Automatic cell tracking was performed according to the following procedure; a positional change in the time-lapse image was corrected, and then a position of the cell being the closest in the adjacent time-frame photo was sequentially designated and stored. Since an error might be included in the automatic cell tracking, the migratory pathway of the cell being obtained was appropriately corrected based on a visual judgment by a human. […] According to the obtained migratory pathway information of the cells, one by one, time-series data such as the position, velocity, and directionality of the cells was acquired. In order to avoid exerting an effect of artificial bias on the data, a third person, who was not informed of the details of the experiment, conducted the cell identification and tracking works by using the present software.
VD plot (Velocity-Direction plot) was obtained by calculating median values, as to the values of the time-series data of the velocity and directionality of individual cells, plotting the median value of velocity on the vertical axis and the median value of directionality on the horizontal axis. A gate was set on the graph surface, indicating an index of the cellular chemotaxis, and a rate of the cells included in the gate was obtained. Mann-Whitney U-test was employed for a difference test concerning the rate of the cells.
In the calculation of Chemotactic Response Time (CRT) and of Chemotaxis Lifetime (CLT) of the cell, an Exponential Moving Average (EMA) was calculated based on time-series data of the cell migration velocity, and the cellular chemotaxis was defined by the state where the value of EMA exceeded a certain threshold. In other words, CRT was a time period from start of the measurement until the time when the EMA firstly exceeded the threshold, and an elapsed time from the time when EMA firstly exceeded the threshold until it fell below the threshold was CLT.

| Molecule | rate of cells that continued migration for five minutes or more (CLT analysis), patients compared to normal subjects ([1]; allergy/atopy patients and asthma patients vs normal subjects) | cell motility from VD plot, asthma patients (III) compared to normal subject (I) ([1]; eosinophils of asthma patients, PGD2 or fMLP 1 μM gradient) | CRT analysis: difference between patient groups and normal subjects ([1]; groups I, II, III) | rate of cells having a high specific motility in the concentration gradient direction in the VD plot [2] | Chemotaxis Lifetime (CLT) / migration duration time, in words [2] | Chemotactic Response Time (CRT) / time course of migration start, in words [2] | share of eosinophils that migrated according to the CRT analysis ([2]; normal subjects) |
| --- | --- | --- | --- | --- | --- | --- | --- |
| CSCC[C@H](NC=O)C(=O)N[C@@H](CC(C)C)C(=O)N[C@@H](Cc1ccccc1)C(=O)O [fMLP, N-formyl-methionyl-leucyl-phenylalanine] | not found a significant difference | significant difference | not a large difference | little difference from the control | most of the cells stopped migration within 15 minutes; also recorded: relatively shorter than the other factors | started moving gradually as time advanced | about half |
| B1 | – | – | – | high motility | short relative to CCL5 or CXCL12 | started moving gradually as time advanced | – |
| B2 | – | – | – | little difference from the control | long lifetime tendency | hardly started migration; also recorded: turned up gradually after lapse of approximately one hour | – |
